Test results reported in patent US20090081170A1, “Cardiac progenitor cells” (priority 2007, published 2009).

What was measured:
infarcted mouse hearts = test: Myocardial infarction model (coronary artery ligation) treated with Tβ4 or vehicle; type: in vivo
Method: For in vivo studies, Western blotting, immunofluorescence and immunohistochemistry were performed using standard protocols with the following antibodies: Ki67 (Dako Cytomation), SMαA, sarcomeric α-actinin (Sigma), cardiac myosin binding protein […]-1, CD4, CD8b (all BD Pharmingen), Nkx2.5, VEGF, Tie-2 (all Santa Cruz), GAPDH, Tbx18 (both Chemicon), Isl-1 (clone 39.4D5, Developmental Studies Hybridoma Bank), Tbx18, TNFα, IL-6, IL-10, GFP (full length-detects EYFP), MCP1, cTnT, F4/80, CD45, MPO, (all abcam), Living colours Av peptide, polyclonal and mouse monoclonal JL-8 antibodies (detect EYFP, Clontech) Cx43 (Zymed) and Raldh2 (gift of P. McCaffery). Images were acquired using either a Zeiss Axiolmager with ApoTome or a Zeiss LSM 510 confocal microscope equipped with argon and helium neon lasers using a 63×/1.4 lens. Adult heart samples post myocardial infarction (MI) were kindly provided by James Clark, Cardiovascular Division, King's College London, St. Thomas' Hospital. Briefly, MI was induced in anaesthetised C57B1/6 male mice by ligation of the left anterior descending coronary artery for 30 minutes, followed by reperfusion. Animals were sacrificed one hour, one day or one week post MI and protein extracts prepared in Laemmli buffer for Western blotting and immunoassay to determine levels of Tβ4 and AcSDKP, respectively. For in vivo studies, one hour after recovery, animals received intraperitoneal injection of Tβ4 (150 μg in 0.1 ml PBS) or vehicle (0.1 ml PBS) as previously reported. Further injections were given after 2 and 4 days and hearts were harvested after 2, 4 and 7 days following ligation and prepared for western analysis and histological sectioning, as described above. Infarcts with equivalent extent of injury in the left ventricle were assessed for immunofluorescence and cell counts. […] We next determined the presence of adult EPDC-derived cardiomyocytes in vivo, in both a gain of function (intact heart) mouse model, established by intraperitoneal injection of Tβ4 or vehicle (PBS) into wild type adult mice, and an injury model of myocardial infarctions (by coronary artery ligation) in adult mice (n=27 MIs in total), treated with either Tβ4 (n=13) or vehicle (n=14, injection regimen as for gain of function; refer to Methods). Hearts were assessed using a combination of western and immunofluorescence analyses for myocardial markers after 2, 4, 7, 14 and 28 days for the gain of function model and 2, 4 and 7 days for the injury model.

Akt (P-Ser 473) = test: Tβ4 treatment of C2C12 myoblast cells, Akt phosphorylation; type: cell-based, mouse; conditions: C2C12 myoblasts, Tβ4 10 ng/ml
Method: Western blotting was performed using standard methods (Tris-Tricine 4-20% gradient SDS-PAGE for blotting of Tβ4 or Tβ10 peptides and Tris-glycine SDS-PAGE for all other proteins) using antibodies against Tβ4 (abcam), Tβ10 (Biodesign International), Tie-2 (Santa Cruz), SMαA (Sigma), GAPDH (Chemicon), Caspase-8 (Santa Cruz), Cleaved caspase-3, total Akt and Phospho-Akt (both Cell Signalling Technology).
C2C12 cells were cultured in DMEM containing 10% FBS. Tβ4 (10 ng/ml, mmundiagnostik AG) was added and cells harvested over a time course to assess the degree of phosphorylation (activation) of Akt.

[1] = system: epicardial explants from E10.5 hearts; test: Embryonic epicardial explant cultures; type: cell-based, mouse; conditions: E10.5 explants
Description: In order to support our in vivo phenotype analyses and assess a direct effect of Tβ4 on developing epicardium, we established epicardial explant cultures from wild-type hearts13. We initially derived epicardial explants from stages E10.5 to E16.5 and postnatal day 1 (P1) neonates, treated with either, Tβ4, with VEGF and FGF7 [59], or a combination of Tβ4 and growth factors. Explants from E10.5 hearts, coincident with the formation of the epicardium, produced extensive outgrowths that differentiated into SMαA- and Tie2-positive cells (FIG. 3 b).

[2] = infarcted hearts, 2 days of treatment, n=3, 35 fields

Thymosin β4 [Tβ4]
TNF-α reduction vs vehicle (western) (infarcted mouse hearts; 2 days of treatment post-MI): 6.2 fold | IL-10 increase compared to control (western) (infarcted mouse hearts; 2 days post-MI): 8.1 fold | infarct area (Image J) (infarcted mouse hearts; 2 days post-MI, section through left ventricle wall): 0.292 mm^2 | increase in vessel area vs control (Image J) (infarcted mouse hearts; 7 days of treatment post-MI): 2 fold | vessel area/field (infarcted mouse hearts; 7 days of treatment post-MI, n=7): 10.67+/−0.55% | scar volume vs vehicle (trichrome) (infarcted mouse hearts; 7 days post MI): reduced scar volume | epicardial fibrosis, share of the epicardium affected (infarcted mouse hearts; 7 days post MI, trichrome): ≤ 20% | EPDC-derived (EYFP+) cardiomyocytes, % of total cardiomyocytes per field (infarcted mouse hearts; Gata5-EYFP mice, 7 days treatment post-MI): 14.1% | EYFP+ cardiomyocytes, mean number of positive cells/field +/−SEM (infarcted mouse hearts; Gata5-EYFP mice, 7 days treatment post-MI, n=6, 38 fields): 49.53+/−4.68 cells/field | Raldh2 up-regulation vs vehicle (western) (infarcted mouse hearts; d2 MI): 1.8 fold | Tbx18 up-regulation vs vehicle (western) (infarcted mouse hearts; d2 MI): 2.8 fold | infiltration of MPO+ neutrophils vs controls (infarcted mouse hearts; d2 and d4 post-MI): reduced infiltration | macrophages (F4/80+) vs vehicle (infarcted mouse hearts; d2 post MI): elevated | CD4:CD8 ratio (infarcted mouse hearts; d4 post-MI): 7.4 | CD4:CD8 ratio (infarcted mouse hearts; d7 post-MI): 10.8 | PECAM protein expression increase (western) (infarcted mouse hearts; d7 post-MI): 9.6 fold | SMαA protein expression increase (western) (infarcted mouse hearts; d7 post-MI): 8.3 fold | macrophages (F4/80+) vs vehicle (infarcted mouse hearts; d7 post-MI): reduced | fibroblast number (EYFP+/procollagen type I) vs control (infarcted mouse hearts; d7 post-MI, p=0.57): did not vary significantly | EYFP+ cardiomyocytes located in remote myocardium, % of total EYFP+ cardiomyocytes per field (infarcted mouse hearts; day 7 post-MI, left ventricle): 40% | EYFP+ cardiomyocytes proximal to the border zone, % of total EYFP+ cardiomyocytes per field (infarcted mouse hearts; day 7 post-MI, left ventricle): 58% | IL-6 reduction vs vehicle (western) (infarcted mouse hearts; early stages post-MI): 4.1 fold | MCP-1 up-regulation (western) (infarcted mouse hearts; early, d2 post-MI): 3.9 fold | proliferation of cells (Ki67) within the epicardium and subepicardial space (infarcted mouse hearts; following MI): increase in proliferation | Isl1 elevated levels (western) (infarcted mouse hearts; from 2 days post-MI onwards): 5.1 fold | Nkx2.5 elevated levels (western) (infarcted mouse hearts; from 2 days post-MI onwards): 1.9 fold | Raldh2+ mean number of positive cells per field +/−SEM (infarcted mouse hearts; [2]): 41.8+/−1.9 cells per field | Tbx18+ mean number of positive cells per field +/−SEM (infarcted mouse hearts; [2]): 36.1+/−3.1 cells per field | increase in number of endothelial (PECAM+) cells vs vehicle (infarcted mouse hearts; infarcted hearts, 4 days): 3.5 fold | PECAM+ number of cells per field +/−SEM (infarcted mouse hearts; infarcted hearts, 4 days, n=3): 150.33+/−10.94 cells per field | MCP-1 levels (in words) (infarcted mouse hearts; initial stages post-MI): significantly reduced levels | levels of MMP3 and -9 (infarcted mouse hearts; post MI): reduced levels | levels of TIMP1 and -2 (infarcted mouse hearts; post MI): without an effect | P-NFκB positive cells at the infarct border zone (infarcted mouse hearts; post-MI, immunostaining): reduced number | time to Akt activation (P-Ser 473) (Akt (P-Ser 473)): ≤ 10 min | numbers of SMαA- and Tie2-positive cells [1]: significantly increased
